# Laboratory results from ChEMBL document CHEMBL1201861, “Genomics of Drug Sensitity in Cancer screening data, Wellcome Trust Sanger Institute”.
# Tests used:
# Test in all cases: cells
# THP-1 = assay type: functional, cell-based, Homo sapiens; settings: Homo sapiens, THP-1;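 also: growth inhibition of THP-1 cells, read out via a cell viability assay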
# Description: SANGER: Inhibition of human THP-1 cell growth in a cell viability assay.
# DMS-153 = assay type: functional, cell-based, Homo sapiens; settings: Homo sapiens, DMS-153
# Description: SANGER: Inhibition of human DMS-153 cell growth in a cell viability assay.
# SIG-M5 = assay type: functional, cell-based, Homo sapiens; settings: Homo sapiens, SIG-M5;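 also: cell viability assay read-out, measuring how strongly growth of cultured human SIG-M5 cells is inhibited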
# Description: SANGER: Inhibition of human SIG-M5 cell growth in a cell viability assay.
# NCI-H1651 = assay type: functional, cell-based; settings: Homo sapiens;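 also: Read-out is a cell viability assay, with IC50 expressing inhibition of NCI-H1651 cell growth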
# Description: SANGER: Inhibition of human NCI-H1651 cell growth in a cell viability assay.
# HCC 2998 = assay type: functional, cell-based; settings: Homo sapiens;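 also: growth inhibition of human HCC2998 cells, measured with a cell viability read-out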
# Description: SANGER: Inhibition of human HCC2998 cell growth in a cell viability assay.
# FTC-133 = assay type: functional, cell-based; settings: Homo sapiens
# G-402 = assay type: functional, cell-based; settings: Homo sapiens
# Description: SANGER: Inhibition of human G-402 cell growth in a cell viability assay.
# A673 = assay type: functional, cell-based; settings: Homo sapiens;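 also: growth inhibition of human A673 cells, read out through a cell viability assay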
# Description: SANGER: Inhibition of human A673 cell growth in a cell viability assay.
# SR = assay type: functional, cell-based, Homo sapiens; settings: Homo sapiens, SR
# Description: SANGER: Inhibition of human SR cell growth in a cell viability assay.
# 786-0 = assay type: functional, cell-based; settings: Homo sapiens
# Description: SANGER: Inhibition of human 786-0 cell growth in a cell viability assay.
# DG-75 = assay type: functional, cell-based, Homo sapiens; settings: Homo sapiens, DG-75;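 also: growth inhibition of DG-75 cells, read out with a cell viability assay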
# Description: SANGER: Inhibition of human DG-75 cell growth in a cell viability assay.
# EB2 = assay type: functional, cell-based, Homo sapiens; settings: Homo sapiens, EB2;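 also: growth inhibition of EB2 cells, read out with a cell viability assay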
# Description: SANGER: Inhibition of human EB2 cell growth in a cell viability assay.
# SW1573 = assay type: functional, cell-based; settings: Homo sapiens;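 also: growth inhibition of SW1573 cells, read out with a cell viability assay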
# Description: SANGER: Inhibition of human SW1573 cell growth in a cell viability assay.
# C-33-A = assay type: functional, cell-based; settings: Homo sapiens;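 also: cell viability assay measuring growth inhibition of C-33-A cells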
# Description: SANGER: Inhibition of human C-33-A cell growth in a cell viability assay.
# HCT-116 = assay type: functional, cell-based; settings: Homo sapiens
# Description: SANGER: Inhibition of human HCT-116 cell growth in a cell viability assay.
# CAL-51 = assay type: functional, cell-based; settings: Homo sapiens;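 also: human CAL-51 cell line, growth inhibition read out via a cell viability assay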
# Description: SANGER: Inhibition of human CAL-51 cell growth in a cell viability assay.
# SK-HEP1 = assay type: functional, cell-based, SK-HEP-1; settings: Homo sapiens;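 also: cell viability readout used to quantify reduction in proliferation of human SK-HEP-1 cells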
# Description: SANGER: Inhibition of human SK-HEP-1 cell growth in a cell viability assay.
# BXPC-3 = assay type: functional, cell-based; settings: Homo sapiens;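 also: growth inhibition of human BxPC-3 cells, read out by a cell viability assay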
# Description: SANGER: Inhibition of human BxPC-3 cell growth in a cell viability assay.
# KMOE-2 = assay type: functional, cell-based, Homo sapiens; settings: Homo sapiens, KMOE-2;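 also: growth inhibition of human KMOE-2 cells, read out with a cell viability assay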
# Description: SANGER: Inhibition of human KMOE-2 cell growth in a cell viability assay.
# UMUC3 = assay type: functional, cell-based; settings: Homo sapiens;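 also: growth inhibition of human UM-UC-3 cells, read out with a cell viability assay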
# Description: SANGER: Inhibition of human UM-UC-3 cell growth in a cell viability assay.
# HT-29 = assay type: functional, cell-based; settings: Homo sapiens;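 also: growth inhibition of human HT-29 cells, read out by a cell viability assay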
# Description: SANGER: Inhibition of human HT-29 cell growth in a cell viability assay.
# HCC1937 = assay type: functional, cell-based; settings: Homo sapiens;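 also: growth inhibition measured with a cell viability read-out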
# Description: SANGER: Inhibition of human HCC1937 cell growth in a cell viability assay.
# A2780 = assay type: functional, cell-based; settings: Homo sapiens;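 also: growth inhibition of A2780 cells, read out with a cell viability assay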
# Description: SANGER: Inhibition of human A2780 cell growth in a cell viability assay.
# DMS-273 = assay type: functional, cell-based; settings: Homo sapiens
# Description: SANGER: Inhibition of human DMS-273 cell growth in a cell viability assay.
# SNU-C1 = assay type: functional, cell-based, Homo sapiens; settings: Homo sapiens, SNU-C1;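 also: growth inhibition of SNU-C1 human cells, read out by a cell viability assay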
# Description: SANGER: Inhibition of human SNU-C1 cell growth in a cell viability assay.
# NCI-H661 = assay type: functional, cell-based; settings: Homo sapiens;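 also: cell viability assay read-out, IC50 being the concentration that inhibits growth of the cells by half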
# Description: SANGER: Inhibition of human NCI-H661 cell growth in a cell viability assay.
# LN-405 = assay type: functional, cell-based; settings: Homo sapiens
# Description: SANGER: Inhibition of human LN-405 cell growth in a cell viability assay.
# JEG-3 = assay type: functional, cell-based; settings: Homo sapiens;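 also: growth inhibition of human JEG-3 cells, read out with a cell viability assay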
# Description: SANGER: Inhibition of human JEG-3 cell growth in a cell viability assay.
# SW1783 = assay type: functional, cell-based; settings: Homo sapiens;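 also: cell growth inhibition measured with a viability assay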
# Description: SANGER: Inhibition of human SW1783 cell growth in a cell viability assay.
# NCI-H2122 = assay type: functional, cell-based; settings: Homo sapiens;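 also: growth inhibition of the cells, read out with a cell viability assay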
# Description: SANGER: Inhibition of human NCI-H2122 cell growth in a cell viability assay.
# LP-1 = assay type: functional, cell-based, Homo sapiens; settings: Homo sapiens, LP-1;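 also: growth inhibition of human LP-1 cells, with the read-out taken from a cell viability assay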
# Description: SANGER: Inhibition of human LP-1 cell growth in a cell viability assay.
# NCI-H2452 = assay type: functional, cell-based; settings: Homo sapiens;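 also: growth inhibition of NCI-H2452 cells, read out with a cell viability assay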
# Description: SANGER: Inhibition of human NCI-H2452 cell growth in a cell viability assay.
# LU-165 = assay type: functional, cell-based, Homo sapiens; settings: Homo sapiens, LU-165
# Description: SANGER: Inhibition of human LU-165 cell growth in a cell viability assay.
# NCI-H2030 = assay type: functional, cell-based; settings: Homo sapiens;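 also: growth inhibition of human NCI-H2030 cells, read out by a cell viability assay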
# Description: SANGER: Inhibition of human NCI-H2030 cell growth in a cell viability assay.
# YT = assay type: functional, cell-based, Homo sapiens; settings: Homo sapiens, YT
# Description: SANGER: Inhibition of human YT cell growth in a cell viability assay.
# SK-MEL-24 = assay type: functional, cell-based; settings: Homo sapiens;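 also: growth inhibition read out by a cell viability assay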
# Description: SANGER: Inhibition of human SK-MEL-24 cell growth in a cell viability assay.
# ABC-1 = assay type: functional, cell-based; settings: Homo sapiens;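 also: growth inhibition of human ABC-1 cells, read out by a cell viability assay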
# Description: SANGER: Inhibition of human ABC-1 cell growth in a cell viability assay.
# HuTu80 = assay type: functional, cell-based, Homo sapiens, HUTU-80; settings: Homo sapiens, HuTu80;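 also: growth inhibition of HuTu80 human cells, determined with a cell viability readout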
# Description: SANGER: Inhibition of human HUTU-80 cell growth in a cell viability assay.
# CAL-85-1 = assay type: functional, cell-based; settings: Homo sapiens;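 also: growth inhibition of human CAL-85-1 cells, read out with a cell viability assay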
# Description: SANGER: Inhibition of human CAL-85-1 cell growth in a cell viability assay.
# CAL-54 = assay type: functional, cell-based; settings: Homo sapiens;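 also: growth inhibition of CAL-54 cells, read out by a viability measurement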
# Description: SANGER: Inhibition of human CAL-54 cell growth in a cell viability assay.
# BPH-1 = assay type: functional, cell-based; settings: Homo sapiens;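 also: cell viability assay measuring growth inhibition of human BPH-1 cells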
# Description: SANGER: Inhibition of human BPH-1 cell growth in a cell viability assay.
# HSC-2 = assay type: functional, cell-based; settings: Homo sapiens;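 also: growth inhibition of human HSC-2 cells, read out by a cell viability assay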
# Description: SANGER: Inhibition of human HSC-2 cell growth in a cell viability assay.
# CAL-33 = assay type: functional, cell-based; settings: Homo sapiens;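 also: growth inhibition of CAL-33 cells, read out with a cell viability assay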
# Description: SANGER: Inhibition of human CAL-33 cell growth in a cell viability assay.
# KYSE-150 cell line = assay type: functional, cell-based; settings: Homo sapiens;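 also: growth inhibition of human KYSE-150 cells, read out with a cell viability assay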
# Description: SANGER: Inhibition of human KYSE-150 cell growth in a cell viability assay.
# VM-CUB-1 = assay type: functional, cell-based; settings: Homo sapiens;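 also: cell viability assay measuring growth inhibition of the human VM-CUB-1 cell line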
# Description: SANGER: Inhibition of human VM-CUB-1 cell growth in a cell viability assay.
# NCI-H596 = assay type: functional, cell-based; settings: Homo sapiens;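 also: growth inhibition of NCI-H596 cells, read out with a cell viability assay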
# Description: SANGER: Inhibition of human NCI-H596 cell growth in a cell viability assay.
# YKG-1 = assay type: functional, cell-based; settings: Homo sapiens;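 also: cell growth inhibition, read out with a viability assay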
# Description: SANGER: Inhibition of human YKG-1 cell growth in a cell viability assay.
# KYSE-140 = assay type: functional, cell-based; settings: Homo sapiens;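 also: cell viability assay measuring growth inhibition in human KYSE-140 cells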
# Description: SANGER: Inhibition of human KYSE-140 cell growth in a cell viability assay.
# PA-1 = assay type: functional, cell-based; settings: Homo sapiens;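 also: IC50 for suppression of PA-1 cell proliferation, determined with a cell viability read-out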
# Description: SANGER: Inhibition of human PA-1 cell growth in a cell viability assay.
# KYSE-510 = assay type: functional, cell-based; settings: Homo sapiens;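 also: cell viability readout used to measure how strongly growth of the cell line is suppressed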
# Description: SANGER: Inhibition of human KYSE-510 cell growth in a cell viability assay.
# SW13 = assay type: functional, cell-based; settings: Homo sapiens;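 also: IC50 is inhibition of SW13 cell growth, read out with a cell viability assay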
# Description: SANGER: Inhibition of human SW13 cell growth in a cell viability assay.
# A-375 = assay type: functional, cell-based; settings: Homo sapiens;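 also: growth inhibition of A375 cells, read out with a cell viability assay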
# Description: SANGER: Inhibition of human A375 cell growth in a cell viability assay.
# MKN-7 = assay type: functional, cell-based; settings: Homo sapiens;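 also: growth inhibition of MKN-7 cells, read out with a cell viability assay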
# Description: SANGER: Inhibition of human MKN7 cell growth in a cell viability assay.
# MHH-CALL-2 = assay type: functional, cell-based, Homo sapiens; settings: Homo sapiens, MHH-CALL-2;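 also: growth inhibition of the cell line, read out in a cell viability assay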
# Description: SANGER: Inhibition of human MHH-CALL-2 cell growth in a cell viability assay.
# NCI-H1793 = assay type: functional, cell-based; settings: Homo sapiens;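 also: cell growth inhibition, read out by a cell viability assay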
# Description: SANGER: Inhibition of human NCI-H1793 cell growth in a cell viability assay.
# ME-180 = assay type: functional, cell-based; settings: Homo sapiens;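 also: cell viability assay measuring growth inhibition of ME-180 cells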
# Description: SANGER: Inhibition of human ME-180 cell growth in a cell viability assay.
# CA46 = assay type: functional, cell-based, Homo sapiens; settings: Homo sapiens, CA46;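 also: growth inhibition of human CA46 cells, read out by a cell viability assay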
# Description: SANGER: Inhibition of human CA46 cell growth in a cell viability assay.
# LB373-MEL-D = assay type: functional, cell-based, Homo sapiens; settings: Homo sapiens, LB373-MEL-D;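 also: growth inhibition of the cell line, read out in a cell viability assay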
# Description: SANGER: Inhibition of human LB373-MEL-D cell growth in a cell viability assay.
# GCT = assay type: functional, cell-based; settings: Homo sapiens;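 also: GCT cell line proliferation inhibition, read out with a cell viability assay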
# Description: SANGER: Inhibition of human GCT cell growth in a cell viability assay.
# L-540 = assay type: functional, cell-based, Homo sapiens; settings: Homo sapiens, L-540
# Description: SANGER: Inhibition of human L-540 cell growth in a cell viability assay.
smiles,measurement,setting,value
COC(=O)[C@H](CCSC)NC(=O)c1ccc(NC[C@@H](N)CS)cc1-c1ccccc1,IC50,THP-1,> 1020 nM
same,IC50,DMS-153,> 1020 nM
same,IC50,SIG-M5,> 1020 nM
same,IC50,NCI-H1651,> 1020 nM
same,IC50,HCC 2998,> 1020 nM
same,IC50,FTC-133,> 1020 nM
same,IC50,G-402,> 1020 nM
same,IC50,A673,> 1020 nM
same,IC50,SR,> 1020 nM
same,IC50,786-0,> 1020 nM
same,IC50,DG-75,> 1020 nM
same,IC50,EB2,> 1020 nM
same,IC50,SW1573,> 1020 nM
same,IC50,C-33-A,> 1020 nM
same,IC50,HCT-116,> 1020 nM
same,IC50,CAL-51,> 1020 nM
same,IC50,SK-HEP1,> 1020 nM
same,IC50,BXPC-3,> 1020 nM
same,IC50,KMOE-2,> 1020 nM
same,IC50,UMUC3,> 1020 nM
same,IC50,HT-29,> 1020 nM
same,IC50,HCC1937,> 1020 nM
same,IC50,A2780,> 1020 nM
same,IC50,DMS-273,> 1020 nM
same,IC50,SNU-C1,> 1020 nM
same,IC50,NCI-H661,> 1020 nM
same,IC50,LN-405,> 1020 nM
same,IC50,JEG-3,> 1020 nM
same,IC50,SW1783,> 1020 nM
same,IC50,NCI-H2122,> 1020 nM
same,IC50,LP-1,> 1020 nM
same,IC50,NCI-H2452,> 1020 nM
same,IC50,LU-165,> 1020 nM
same,IC50,NCI-H2030,> 1020 nM
same,IC50,YT,> 1020 nM
same,IC50,SK-MEL-24,> 1020 nM
same,IC50,ABC-1,> 1020 nM
same,IC50,HuTu80,> 1020 nM
same,IC50,CAL-85-1,> 1020 nM
same,IC50,CAL-54,> 1020 nM
same,IC50,BPH-1,> 1020 nM
same,IC50,HSC-2,> 1020 nM
same,IC50,CAL-33,> 1020 nM
same,IC50,KYSE-150 cell line,> 1020 nM
same,IC50,VM-CUB-1,> 1020 nM
same,IC50,NCI-H596,> 1020 nM
same,IC50,YKG-1,> 1020 nM
same,IC50,KYSE-140,> 1020 nM
same,IC50,PA-1,> 1020 nM
same,IC50,KYSE-510,> 1020 nM
same,IC50,SW13,> 1020 nM
same,IC50,A-375,> 1020 nM
same,IC50,MKN-7,> 1020 nM
same,IC50,MHH-CALL-2,> 1020 nM
same,IC50,NCI-H1793,> 1020 nM
same,IC50,ME-180,> 1020 nM
same,IC50,CA46,> 1020 nM
same,IC50,LB373-MEL-D,> 1020 nM
same,IC50,GCT,> 1020 nM
same,IC50,L-540,> 1020 nM
Cc1ccc(C(=O)Nc2ccc(CN3CCN(C)CC3)c(C(F)(F)F)c2)cc1C#Cc1cnc2cccnn12 [PONATINIB],IC50,THP-1,> 512 nM
same,IC50,DMS-153,> 512 nM
same,IC50,SIG-M5,134 nM
same,IC50,NCI-H1651,> 512 nM
same,IC50,HCC 2998,> 512 nM
same,IC50,FTC-133,> 512 nM
same,IC50,G-402,63.4 nM
same,IC50,A673,> 512 nM
same,IC50,SR,> 512 nM
same,IC50,786-0,262 nM
same,IC50,DG-75,> 512 nM
same,IC50,EB2,55.8 nM
same,IC50,SW1573,> 512 nM
same,IC50,C-33-A,> 512 nM
same,IC50,HCT-116,211 nM
same,IC50,CAL-51,> 512 nM
same,IC50,SK-HEP1,334 nM
same,IC50,BXPC-3,350 nM
same,IC50,KMOE-2,> 512 nM
same,IC50,UMUC3,> 512 nM
same,IC50,HT-29,> 512 nM
same,IC50,HCC1937,> 512 nM
same,IC50,A2780,343 nM
same,IC50,DMS-273,> 512 nM
same,IC50,SNU-C1,> 512 nM
same,IC50,NCI-H661,> 512 nM
same,IC50,LN-405,> 512 nM
same,IC50,JEG-3,> 512 nM
same,IC50,SW1783,> 512 nM
same,IC50,NCI-H2122,> 512 nM
same,IC50,LP-1,> 512 nM
same,IC50,NCI-H2452,> 512 nM
same,IC50,LU-165,> 512 nM
same,IC50,NCI-H2030,312 nM
same,IC50,YT,270 nM
same,IC50,SK-MEL-24,398 nM
same,IC50,ABC-1,> 512 nM
same,IC50,HuTu80,> 512 nM
same,IC50,CAL-85-1,179 nM
same,IC50,CAL-54,> 512 nM
same,IC50,BPH-1,> 512 nM
same,IC50,HSC-2,> 512 nM
same,IC50,CAL-33,> 512 nM
same,IC50,KYSE-150 cell line,424 nM
same,IC50,VM-CUB-1,> 512 nM
same,IC50,NCI-H596,> 512 nM
same,IC50,YKG-1,> 512 nM
same,IC50,KYSE-140,> 512 nM
same,IC50,PA-1,> 512 nM
same,IC50,KYSE-510,> 512 nM
same,IC50,SW13,> 512 nM
same,IC50,A-375,> 512 nM
same,IC50,MKN-7,> 512 nM
same,IC50,MHH-CALL-2,> 512 nM
same,IC50,NCI-H1793,> 512 nM
same,IC50,ME-180,> 512 nM
same,IC50,CA46,175 nM
same,IC50,LB373-MEL-D,> 512 nM
same,IC50,GCT,> 512 nM
same,IC50,L-540,> 512 nM
NC(=O)c1ccc(N(C(N)=O)c2c(F)cccc2F)nc1-c1ccc(F)cc1F [VX-702],IC50,NCI-H1651,> 2000 nM
same,IC50,HCC 2998,> 2000 nM
same,IC50,FTC-133,> 2000 nM
same,IC50,G-402,> 2000 nM
same,IC50,A673,> 2000 nM
same,IC50,786-0,> 2000 nM
same,IC50,SW1573,> 2000 nM
same,IC50,C-33-A,> 2000 nM
same,IC50,HCT-116,> 2000 nM
same,IC50,CAL-51,> 2000 nM
same,IC50,SK-HEP1,> 2000 nM
same,IC50,BXPC-3,> 2000 nM
same,IC50,KMOE-2,> 2000 nM
same,IC50,UMUC3,> 2000 nM
same,IC50,HT-29,> 2000 nM
same,IC50,HCC1937,> 2000 nM
same,IC50,A2780,> 2000 nM
same,IC50,DMS-273,> 2000 nM
same,IC50,NCI-H661,> 2000 nM
same,IC50,LN-405,> 2000 nM
same,IC50,JEG-3,> 2000 nM
same,IC50,SW1783,> 2000 nM
same,IC50,NCI-H2122,> 2000 nM
same,IC50,NCI-H2452,> 2000 nM
same,IC50,NCI-H2030,> 2000 nM
same,IC50,SK-MEL-24,> 2000 nM
same,IC50,ABC-1,> 2000 nM
same,IC50,HuTu80,> 2000 nM
same,IC50,CAL-85-1,> 2000 nM
same,IC50,CAL-54,> 2000 nM
same,IC50,BPH-1,> 2000 nM
same,IC50,HSC-2,> 2000 nM
same,IC50,CAL-33,> 2000 nM
same,IC50,KYSE-150 cell line,> 2000 nM
same,IC50,VM-CUB-1,> 2000 nM
same,IC50,NCI-H596,> 2000 nM
same,IC50,YKG-1,> 2000 nM
same,IC50,KYSE-140,> 2000 nM
same,IC50,PA-1,> 2000 nM
same,IC50,KYSE-510,> 2000 nM
same,IC50,SW13,> 2000 nM
same,IC50,A-375,> 2000 nM
same,IC50,MKN-7,> 2000 nM
same,IC50,NCI-H1793,> 2000 nM
same,IC50,ME-180,> 2000 nM
same,IC50,LB373-MEL-D,> 2000 nM
same,IC50,GCT,> 2000 nM
